The text below walks through data of patent publication US3944498A, “Germicidal detergent containing a thienyliodonium salt” (The Dow Chemical Company, priority 1973, dated 1976).

Molecules are shown by their SMILES.

One data set has as its system A. aerogenes. Description: Agar plate kill test with Ivory soap, A. aerogenes. The settings on record: Ivory soap. It counts as cell-based. As to the method:
(§1) Phenyl-2-thienyliodonium chloride, 2,2'-bisthienyliodonium chloride, and, for comparative purposes, diphenyliodonium chloride are individually dispersed in Ivory soap to provide concentrates containing 1 part by weight of iodonium salt to 50 parts by weight of soap. The soap concentrates are serially dispersed and serially diluted with liquid nutrient agar at 42°C. to prepare culture media containing various concentrations of one of the iodonium salts. The culture media are uniformly inoculated with S. aureus and plated in petri dishes. The inoculation is carried out from broth cultures of the named organism containing about 5×10^8 organisms per milliliter in the proportion of one-tenth milliliter of bacterial culture per 20 milliliters of cultur medium containing each test compound. In a check operation, nutrient agar containing the same amount of Ivory soap is similarly inoculated with the same organism. After two days' incubation at 37°C., the plates are examined for microbial growth.
The procedure described above is repeated with varying concentrations of 4-chlorophenyl-2-thienyliodonium chloride, 3,4-dichlorophenyl-2-thienyliodonium chloride, and for comparative purposes bis(4-chlorophenyl)iodonium chloride, phenyl-4-chlorophenyliodonium chloride and bis(2,4-dichlorophenyl)iodoniumchloride in a series of tests wherein the culture media are inoculated individually with the organism A. aerogenes.
The procedure described above is once again repeated with each of 2,2'-bisthienyliodonium chloride, phenyl-2-thienyliodonium chloride, 4-bromophenyl-2-thienyliodonium chloride, bis(4-bromophenyl)iodonium chloride and bis(4-bromophenyl)iodonium bromide in a series of tests wherein the culture media are inoculated individually with the organism A. aerogenes.

Data set [1] has as its system S. typhosa. Description: Agar plate kill test with Ivory soap, S. typhosa. In kind it is cell-based. As to the method: as §1
The procedure described above is again repeated in a series of tests wherein the culture media are inoculated individually with the organism S. typhosa and wherein the culture media contain varying concentrations of one of the iodonium salts, as set forth in following Table II.

Data set [2] deals with S. aureus. Description: Nutrient agar growth test, S. aureus (Example 3). The settings on record: 0.001 percent by weight, 2 days, 35°C. In kind it is cell-based. The text has this: (§2) The 4-chlorophenyl-2-thienyliodonium chloride, trifluoroacetate and trichloroacetate salts are dispersed in melted nutrient agar to produce culture media containing 0.001 percent by weight of one of the salt compounds. Such melted media are then poured into petri dishes and the solidified surface in each dish inoculated with a 24-hour broth culture, one of the organisms S. aureus and S. typhosa. In a check operation, petri dishes containing unmodified nutrient agar are each individually inoculated in the same manner with the named organisms. After two days' incubation at 35°C. the agar surface in each dish is examined for microbial growth. […] At the time of these observations the check dishes are found to support a heavy growth of the two named organisms.

In data set [3] the test system is S. typhosa. Description: Nutrient agar growth test, S. typhosa (Example 3). In kind it is cell-based. Particulars: 0.001 percent by weight, 2 days, 35°C.
From the text: as §2

Data set [4] deals with S. aureus. Description: Agar dilution MIC in presence of Ivory soap, S. aureus. It counts as cell-based. Particulars: Staphylococcus aureus; read-out: Minimum growth inhibitory concentration, S. aureus. As to the method: (§3) The growth-inhibitory activity of the below-indicated compounds against some microorganisms most relevant to the human skin was determined by standard agar dilution techniques to provide the data given in following Table 1.
(§4) In Table 1, the first column gives the chemical structures of the test compounds, while the additional columns give the names of the test organisms and the minimum inhibitory concentration in parts per million (p.p.m.) of the compounds listed for 100% growth inhibition against the particular microorganisms indicated. […] For each p.p.m. of test compound, 50 p.p.m. of Ivory soap was also present in the culture medium for part A of Table 1, while in part B of Table 1, the culture medium was free of any additive other than the test compound. The data for compounds 13 through 16 of part B of Table 1 were taken from Cannon U.S. Pat. No. 3,207,660 while those for compounds 17 and 18 were taken from trade literature.
A general note: Agar dilution tests growth on a series of plates holding different concentrations.

Data set [5] concerns P. aeruginosa. Description: Agar dilution MIC in presence of Ivory soap, P. aeruginosa. It counts as cell-based. The settings on record: Pseudomonas aeruginosa; read-out: Minimum growth inhibitory concentration, P. aeruginosa. As to the method: as §3, §4
For data set [6], the system named is S. typhosa. Description: Agar dilution MIC in presence of Ivory soap, S. typhosa. In kind it is cell-based. Particulars: read-out: Minimum growth inhibitory concentration, S. typhosa. As to the method:
as §3, §4

Data set [7] can be described thus: Range-finding median lethal dose (LD50) in mice. Particulars: mouse, in vivo; single oral dose in corn oil, 14-day observation. As to the method:
The range-finding oral median lethal dose (LD50) for iodonium and other antimicrobial compounds, including diphenyl- and thienyliodonium salts as well as several proprietary products was determined in mice. Compounds 1 through 11 of following Table 2 were fed to five groups of two mice each, the test compound being administered in suspension in corn oil as a single oral dose and the mortality experience of the mice was observed over a 14-day period. Data for compounds 12 through 15 were taken from U.S. Pat. No. 3,207,660, and for compounds 16 through 18 were taken from trade literature.

The next data set relates to mice. The settings on record: cited from earlier work; for Oral LD50 (mice): 12-15 from U.S. Pat. No. 3,207,660, 17, 18 from trade literature.
For data set [8], the system named is S. aureus. Particulars: absence of soap; 13-16 from Cannon U.S. Pat. No. 3,207,660, 17-18 from trade literature; cited from earlier work.
Data set [9] concerns P. aeruginosa. Particulars: absence of soap; 13-16 from Cannon U.S. Pat. No. 3,207,660, 17-18 from trade literature; cited from earlier work.
The mark [10] stands for this setting: 48 h, read-out: Percent Kill of S. Typhosa.
Where [11] appears, read: Klebsiella aerogenes, 48 h, 10 p.p.m., read-out: Percent Kill of A. aerogenes.

Consider `Clc1ccc([I+]c2cccs2)cc1Cl` [3,4-dichlorophenyl-2-thienyliodonium chloride], for which the killing at 1 ppm in the data set on A. aerogenes (Klebsiella aerogenes, 48 h, 1 p.p.m., read-out: Percent Kill of A. aerogenes) amounted to 100%; in the data set with S. typhosa [1] (setting [10]), 100%.
Regarding `Clc1ccc([I+]c2cccs2)cc1.O=C([O-])C(F)(F)F` [4-Chlorophenyl-2-thienyliodonium trifluoroacetate], the “microbial growth on agar surface” value in the data set on S. aureus [2] and with S. typhosa [3] was “free of microbial growth” each time.
Regarding `Brc1ccc([I+]c2cccs2)cc1` [4-bromophenyl-2-thienyliodonium chloride], the killing at 5 ppm with A. aerogenes (Klebsiella aerogenes, 48 h, 5 p.p.m., read-out: Percent Kill of A. aerogenes) was 100%; in the data set on S. typhosa [1] (setting [10]) it was 100%.
On to `Clc1ccc([I+]c2cccs2)cc1` [4-chlorophenyl-2-thienyliodonium trichloroacetate], for which the “microbial growth on agar surface” value in the data set on S. aureus [2] and with S. typhosa [3] was “free of microbial growth” throughout.
`c1ccc([I+]c2ccccc2)cc1` [Compound 1 (Table 1)]: the MIC in the data set on S. aureus [4], with P. aeruginosa [5] and in the data set with S. typhosa [6] was above 500 mg/L throughout.
As usually defined, the LD50 is the dose expected to kill half of the subjects tested. On to `c1ccc([I+]c2ccccc2)cc1` [Compound 1 (Table 2)], for which, in data set [7], the LD50 came to 56.2 mg/kg.
Regarding `c1ccc([I+]c2cccs2)cc1` [Compound 2 (Table 1)], the MIC in the data set on S. aureus [4], in the data set on P. aeruginosa [5] and in the data set with S. typhosa [6] was 5 mg/L in each case.
In the case of `c1csc([I+]c2cccs2)c1` [Compound 3 (Table 1)], the MIC in the data set with S. aureus [4] is 0.5 mg/L; in the data set with P. aeruginosa [5], 5 mg/L; in the data set on S. typhosa [6], 0.5 mg/L.
As to `c1ccc([I+]c2cccs2)cc1` [Compound 3 (Table 2)], in data set [7], the LD50 was found to be 2000 mg/kg.
For `Clc1ccc([I+]c2ccccc2)cc1` [Compound 4 (Table 1)], the figures for the MIC with S. aureus [4], with P. aeruginosa [5] and in the data set with S. typhosa [6] were 10 mg/L, above 100 mg/L and above 10 mg/L, respectively.
With `c1csc([I+]c2cccs2)c1` [Compound 4 (Table 2)], the LD50 in data set [7] was 500 mg/kg.
Turning to `Clc1ccc([I+]c2ccc(Cl)cc2)cc1` [Compound 5 (Table 1)], the MIC in the data set on S. aureus [4] was 10 mg/L; in the data set on P. aeruginosa [5], above 100 mg/L; in the data set with S. typhosa [6] it was 10 mg/L.
On to `Clc1ccc([I+]c2cccs2)cc1` [Compound 5 (Table 2)], for which, in [7], the median lethal dose (LD50) is above 4000 mg/kg.
For `Clc1ccc([I+]c2cccs2)cc1` [Compound 6 (Table 1)], the MIC in the data set on S. aureus [4], in the data set on P. aeruginosa [5] and in the data set with S. typhosa [6] was 1 mg/L in each case.
`Clc1ccc([I+]c2cccs2)cc1Cl` [Compound 6 (Table 2)]: the median lethal dose (LD50) in data set [7] came to 2000 mg/kg.
As to `Clc1ccc([I+]c2ccc(Cl)c(Cl)c2)cc1Cl` [Compound 7 (Table 1)], the figures for the MIC with S. aureus [4], in the data set on P. aeruginosa [5] and in the data set on S. typhosa [6] were 5 mg/L, above 500 mg/L and above 10 mg/L, respectively.
On to `Cc1ccc([I+]c2cccs2)cc1` [Compound 7 (Table 2)], for which, in data set [7], the LD50 is 750 mg/kg.
Take `Clc1ccc([I+]c2cccs2)cc1Cl` [Compound 8 (Table 1)]: the MIC in the data set with S. aureus [4], in the data set with P. aeruginosa [5] and with S. typhosa [6] was 1 mg/L each time.
In the case of `CCc1ccc([I+]c2cccs2)cc1` [Compound 8 (Table 2)], the LD50 in data set [7] was 1500 mg/kg.
Regarding `CCOc1ccc([I+]c2ccccc2)cc1` [Compound 9 (Table 1)], the MIC in the data set with S. aureus [4], in the data set on P. aeruginosa [5] and with S. typhosa [6] was above 500 mg/L throughout.
The compound `Cc1ccc(C)c([I+]c2cccs2)c1` [Compound 9 (Table 2)] displayed an LD50 in data set [7] of 3000 mg/kg.
Consider `CCOc1ccc([I+]c2cccs2)cc1` [Compound 10 (Table 1)], for which the MIC in the data set with S. aureus [4] was found to be 5 mg/L; in the data set on P. aeruginosa [5], 50 mg/L; in the data set with S. typhosa [6] it was 5 mg/L.
On to `c1ccc(Oc2ccc([I+]c3cccs3)cc2)cc1` [Compound 10 (Table 2)], for which the median lethal dose (LD50) in [7] stood at 3000 mg/kg.
Same read-out and setting: to `c1ccc(-c2ccc([I+]c3cccs3)cc2)cc1` [Compound 11 (Table 2)] belongs 4000 mg/kg.
As for `c1ccc2c(c1)[I+]c1ccccc1-2` [Compound 12 (Table 2)], in the data set on mice, the “Oral LD50 (mice)” value was 12.5 mg/kg.
For the compound `c1ccc2c(c1)[I+]c1ccccc1-2` [Compound 13 (Table 1)], the “Minimum growth inhibitory concentration, S. aureus” value in the data set with S. aureus [8] was 3.13 ppm. Further, the “Minimum growth inhibitory concentration, P. aeruginosa” value in the data set with P. aeruginosa [9] is 3.13 ppm.
`c1ccc2c(c1)[I+]c1ccccc1-2` [Compound 13 (Table 2)]: the “Oral LD50 (mice)” value in the data set with mice is 8.75 ± 0.57 mg/kg.
Turning to `c1ccc2c(c1)[I+]c1ccccc1-2` [Compound 14 (Table 1)], the “Minimum growth inhibitory concentration, S. aureus” value with S. aureus [8] was 5 ppm. For the same compound, the “Minimum growth inhibitory concentration, P. aeruginosa” value in the data set on P. aeruginosa [9] is given as 5 ppm.
As to `Clc1cccc2c1-c1c(Cl)cccc1[I+]2` [Compound 14 (Table 2)], in the data set on mice, the “Oral LD50 (mice)” value is 8 to 10 mg/kg.
Regarding `Clc1cccc2c1-c1ccccc1[I+]2` [Compound 15 (Table 1)], the “Minimum growth inhibitory concentration, S. aureus” value with S. aureus [8] is listed as 1.56 ppm. Moreover, the “Minimum growth inhibitory concentration, P. aeruginosa” value with P. aeruginosa [9] is recorded as 3.13 ppm.
Turning to `Clc1ccc2c(c1)[I+]c1cc(Cl)ccc1-2` [Compound 15 (Table 2)], the “Oral LD50 (mice)” value in the data set on mice is 21.32 ± 3.2 mg/kg.
With `Clc1ccc2c(c1)[I+]c1cc(Cl)ccc1-2` [Compound 16 (Table 1)], the “Minimum growth inhibitory concentration, S. aureus” value with S. aureus [8] is recorded as 1.56 ppm. For the same compound, the “Minimum growth inhibitory concentration, P. aeruginosa” value in the data set on P. aeruginosa [9] was 6.25 ppm.
For `C[CH2][Hg][S]c1ccccc1C(=O)[O-].[Na+]` [Merthiolate], the “LD50 (mice), subcutaneous” value in the data set with mice (S.C., trade literature) is reported as 66 mg/kg.
As to `Clc1ccc([I+]c2ccc(Cl)cc2Cl)c(Cl)c1` [bis(2,4-dichlorophenyl)iodonium chloride, bis(2,4-dichlorophenyl)iodoniumchloride, reference compound], the killing at 10 ppm in the data set with A. aerogenes (setting [11]) and in the data set on S. typhosa [1] (setting [10]) was 0% throughout.
For the compound `Brc1ccc([I+]c2ccc(Br)cc2)cc1.[Br-]` [bis(4-bromophenyl)iodonium bromide, reference compound], in the data set with A. aerogenes (10 p.p.m.), the “Percent Kill of A. aerogenes” value was 0%. In addition, in the data set with S. typhosa [1] (10 p.p.m., Ivory soap), the “Percent Kill of S. Typhosa” value stood at 0%.
On to `Brc1ccc([I+]c2ccc(Br)cc2)cc1` [bis(4-bromophenyl)iodonium chloride, reference compound], for which the killing at 10 ppm in the data set with A. aerogenes (setting [11]) and with S. typhosa [1] (setting [10]) was 0% throughout.
Regarding `Clc1ccc([I+]c2ccc(Cl)cc2)cc1` [bis(4-chlorophenyl)iodonium chloride, reference compound], in the data set on A. aerogenes (Klebsiella aerogenes, 48 h, 100 p.p.m., read-out: Percent Kill of A. aerogenes), the killing at 100 ppm came out at 0%.
`Oc1c(Cl)cc(Cl)c(Cl)c1Cc1c(O)c(Cl)cc(Cl)c1Cl` [hexachlorophene]: in the data set with mice, the “Oral LD50 (mice)” value is 161 mg/kg.
`Clc1ccc([I+]c2ccccc2)cc1.[Cl-]` [phenyl-4-chlorophenyliodonium chloride, reference compound]: the killing at 10 ppm in the data set with A. aerogenes (setting [11]) and in the data set with S. typhosa [1] (setting [10]) was 0% throughout. The LD50 in data set [7] came to 68 mg/kg.
